pIC50: −log10 of the molar value.

T1 sequence (Q92633 whole entry): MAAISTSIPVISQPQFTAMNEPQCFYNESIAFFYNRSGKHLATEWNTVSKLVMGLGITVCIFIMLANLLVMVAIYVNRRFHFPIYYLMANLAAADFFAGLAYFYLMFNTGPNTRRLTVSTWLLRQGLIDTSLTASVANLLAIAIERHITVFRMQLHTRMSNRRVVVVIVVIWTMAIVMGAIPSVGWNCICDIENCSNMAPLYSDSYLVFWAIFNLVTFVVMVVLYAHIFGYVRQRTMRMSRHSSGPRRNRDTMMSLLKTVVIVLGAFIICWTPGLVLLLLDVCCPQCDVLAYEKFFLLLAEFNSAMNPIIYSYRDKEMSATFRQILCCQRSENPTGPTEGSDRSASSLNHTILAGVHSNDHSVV

The assay concerns the target T1, human LPA1 (Homo sapiens, UniProt Q92633).
T1 construct: the full-length cDNA for human LPA1 was obtained by PCR of the reverse transcription reaction; expressed in transfected cells
Kind of assay: LPA1 calcium flux assay. The assay is classed as cell-based. The settings on record: CHO cells expressing human LPA1, stimulated with 10 nM LPA; read-out: HLPA1 Ca Flux IC50. The method in brief: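 CHO cells stably expressing cloned human LPA1, serum-starved overnight, loaded with Calcium 4 dye 1 h at 37 °C in HBSS/20 mM Hepes with 0.3% fatty-acid-free HSA. Compounds preincubated 30 min at room temperature, then cells stimulated with 10 nM LPA; intracellular Ca2+ read by fluorescence. IC50 from titration curves.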
Consider `Cc1noc(-c2ccc(-c3ccc(C4(C(=O)O)CC4)cc3)cc2)c1/C=C/[S+]([O-])Cc1ccccc1` (single isomer, unassigned) [Compound 1-263, 1-(4′-{3-Methyl-4-[(E)-2-(phenylmethanesulfinyl)-vinyl]-isoxazol-5-yl}-biphenyl-4-yl)-cyclopropanecarboxylic acid], for which the pIC50 was 4.30 to 6.00.

`Cc1noc(-c2ccc(-c3ccc(C4(C(=O)O)CC4)cc3)cc2)c1NC(=O)NCc1cc(C(F)(F)F)ccc1F` [Compound 1-15, 1-(4′-{4-[3-(2-Fluoro-5-trifluoromethyl-benzyl)-ureido]-3-methyl-isoxazol-5-yl}-biphenyl-4-yl)-cyclopropanecarboxylic acid]: the pIC50 is 4.30 to 6.00.

`Cc1noc(-c2ccc(-c3cccc(CC4(C(=O)O)CC4)c3)cc2)c1C(O)CCCc1ccccc1` (stereo not drawn) [Compound 1-251, 1-{4′-[4-(1-Hydroxy-4-phenyl-butyl)-3-methyl-isoxazol-5-yl]-biphenyl-3-ylmethyl}-cyclopropanecarboxylic acid]: the pIC50 is 6.00 to 6.52.

For `Cc1noc(-c2ccc(-c3ccc(C4(C(=O)O)CC4)cc3)cc2)c1C(O)C(F)(F)CCc1ccccc1` (single isomer, unassigned) [Compound 1-254, 1-{4′-[4-(2,2-Difluoro-1-hydroxy-4-phenyl-butyl)-3-methyl-isoxazol-5-yl]-biphenyl-4-yl}-cyclopropanecarboxylic acid], the pIC50 is 6.00 to 6.52.

With `Cc1noc(-c2ccc(-c3ccc(C4(C(=O)O)CC4)cc3)cc2)c1/C=C\CCc1ccccc1` [Compound 1-94, 1-{4′-[3-Methyl-4-((Z)-4-phenyl-but-1-enyl)-isoxazol-5-yl]-biphenyl-4-yl}-cyclopropanecarboxylic acid], the pIC50 was greater than 6.52.

Regarding `Cc1noc(-c2ccc(-c3ccc(C4(CC(=O)O)CC4)cc3)cc2)c1/C=C\CCc1ccccc1` [Compound 1-101, (1-{4′-[3-Methyl-4-((Z)-4-phenyl-but-1-enyl)-isoxazol-5-yl]-biphenyl-4-yl}-cyclopropyl)-acetic acid], the pIC50 was greater than 6.52.

As for `Cc1noc(-c2ccc(-c3ccc(C4CC4C(=O)O)cc3)cc2)c1[C@H](O)COCc1ccccc1` (single isomer, unassigned) [Compound 1-217], the pIC50 is greater than 6.52.

`CC(=O)N(Cc1c(C)noc1-c1ccc(-c2ccc(C3(C(=O)O)CC3)cc2)cc1)CC(C)c1ccccc1` (stereo not drawn) [Compound 1-70, 1-[4′-(4-{[Acetyl-(2-phenyl-propyl)-amino]-methyl}-3-methyl-isoxazol-5-yl)-biphenyl-4-yl]-cyclopropanecarboxylic acid]: the pIC50 was greater than 6.52.

Consider `Cc1noc(-c2ccc(-c3ccc(C4(C(=O)O)CC4)cc3)cc2)c1CNCC1CCCCC1` [Compound 1-28, 1-(4′-{4-[(Cyclohexylmethyl-amino)-methyl]-3-methyl-isoxazol-5-yl}-biphenyl-4-yl)-cyclopropanecarboxylic acid], for which the pIC50 was less than 4.30.

For the molecule `Cc1noc(-c2ccc(-c3ccc(C4(C(=O)O)CC4)cc3)cc2)c1CCC(=O)N(C)c1ccccc1` [Compound 1-82, 1-(4′-{3-Methyl-4-[2-(methyl-phenyl-carbamoyl)-ethyl]-isoxazol-5-yl}-biphenyl-4-yl)-cyclopropanecarboxylic acid], the pIC50 was greater than 6.52.

On to `Cc1noc(-c2ccc(-c3ccc(C4(C(=O)O)CC4)cc3)cc2)c1C/C(CCc1ccccc1)=N/O` [Compound 1-134, 1-[4′-(4-{2-[Hydroxyimino]-4-phenyl-butyl}-3-methyl-isoxazol-5-yl)-biphenyl-4-yl]-cyclopropanecarboxylic acid], for which the pIC50 was greater than 6.52.

With `Cc1noc(-c2ccc(-c3ccc(C4(C(=O)O)CC4)cc3)cc2)c1C(O)C(=O)NCc1ccccc1` (stereo not drawn) [Compound 1-252, 1-{4′-[4-(Benzylcarbamoyl-hydroxy-methyl)-3-methyl-isoxazol-5-yl]-biphenyl-4-yl}-cyclopropanecarboxylic acid], the pIC50 is greater than 6.52.

On to `CC(=O)N(CCc1ccccc1)Cc1c(C)noc1-c1ccc(-c2ccc(C3(C(=O)O)CC3)cc2)cc1` [Compound 1-30, 1-(4′-{4-[(Acetyl-phenethyl-amino)-methyl]-3-methyl-isoxazol-5-yl}-biphenyl-4-yl)-cyclopropanecarboxylic acid], for which the pIC50 was greater than 6.52.

Regarding `Cc1noc(-c2ccc(-c3ccccc3C3(C(=O)O)CC3)cc2)c1/C=C\CCc1ccccc1` [Compound 1-62, 1-{4′-[3-Methyl-4-((Z)-4-phenyl-but-1-enyl)-isoxazol-5-yl]-biphenyl-2-yl}-cyclopropanecarboxylic acid], the pIC50 is 4.30 to 6.00.

Take `Cc1noc(-c2ccc(-c3ccc(C4(C(=O)O)CC4)cc3)cc2)c1/C=C/CCc1ccccc1` [Compound 1-95, 1-{4′-[3-Methyl-4-((E)-4-phenyl-but-1-enyl)-isoxazol-5-yl]-biphenyl-4-yl}-cyclopropanecarboxylic acid]: the pIC50 is 6.00 to 6.52.

Regarding `CC(=O)NC(CCCc1ccccc1)c1c(C)noc1-c1ccc(-c2ccc(C3(CC(=O)O)CC3)cc2)cc1` (stereo not drawn) [Compound 1-256, (1-{4′-[4-(1-Acetylamino-4-phenyl-butyl)-3-methyl-isoxazol-5-yl]-biphenyl-4-yl}-cyclopropyl)-acetic acid], the pIC50 was 4.30 to 6.00.

On to `Cc1noc(-c2ccc(-c3ccc(C4(C(=O)O)CC4)cc3)cc2)c1CN(C)CCc1ccccc1` [Compound 1-67, 1-(4′-{3-Methyl-4-[(methyl-phenethyl-amino)-methyl]-isoxazol-5-yl}-biphenyl-4-yl)-cyclopropanecarboxylic acid], for which the pIC50 is greater than 6.52.

For `Cc1noc(-c2ccc(-c3ccc(C4(C(=O)O)CC4)cc3)cc2)c1CC[S+]([O-])Cc1ccccc1` (stereo not drawn) [Compound 1-84, 1-{4′-[3-Methyl-4-(2-phenylmethanesulfinyl-ethyl)-isoxazol-5-yl]-biphenyl-4-yl}-cyclopropanecarboxylic acid], the pIC50 is 4.30 to 6.00.

Consider `Cc1noc(-c2ccc(-c3ccc(C4(C(=O)O)CC4)cc3)cc2)c1Nc1ncnc2scc(C)c12` [Compound 1-212, 1-{4′-[3-Methyl-4-(5-methyl-thieno[2,3-d]pyrimidin-4-ylamino)-isoxazol-5-yl]-biphenyl-4-yl}-cyclopropanecarboxylic acid], for which the pIC50 is 4.30 to 6.00.

`Cc1noc(-c2ccc(-c3ccc(C4(C(=O)O)CC4)cc3)cc2)c1NC(=O)C(C)Oc1ccccc1` (stereo not drawn) [Compound 1-17, 1-{4′-[3-Methyl-4-(2-phenoxy-propionylamino)-isoxazol-5-yl]-biphenyl-4-yl}-cyclopropanecarboxylic acid]: the negative-log IC50 (pIC50) is 4.30 to 6.00.

Take `Cc1noc(-c2ccc(-c3ccc(C4(C(=O)O)CC4)cc3)cc2)c1C(O)CSCC(F)(F)F` (stereo not drawn) [Compound 1-276, 1-(4′-{4-[1-Hydroxy-2-(2,2,2-trifluoro-ethylsulfanyl)-ethyl]-3-methyl-isoxazol-5-yl}-biphenyl-4-yl)-cyclopropanecarboxylic acid]: the pIC50 was greater than 6.52.

Consider `Cc1noc(-c2ccc(-c3ccc(C4(C(=O)O)CC4)cc3)cc2)c1CNC(=O)C1(c2ccccc2)CC1` [Compound 1-64, 1-[4′-(3-Methyl-4-{[(1-phenyl-cyclopropanecarbonyl)-amino]-methyl}-isoxazol-5-yl)-biphenyl-4-yl]-cyclopropanecarboxylic acid], for which the pIC50 is greater than 6.52.

With `Cc1noc(-c2ccc(-c3ccccc3C3(C(=O)O)CC3)cc2)c1/C=C/CCc1ccccc1` [Compound 1-63, 1-{4′-[3-Methyl-4-((E)-4-phenyl-but-1-enyl)-isoxazol-5-yl]-biphenyl-2-yl}-cyclopropanecarboxylic acid], the pIC50 was 4.30 to 6.00.

Consider `Cc1noc(-c2ccc(-c3ccc(C4(C(=O)O)CC4)cc3)cc2)c1NC(C)c1cc2ccccc2s1` (stereo not drawn) [Compound 1-284, 1-{4′-[4-(1-Benzo[b]thiophen-2-yl-ethylamino)-3-methyl-isoxazol-5-yl]-biphenyl-4-yl}-cyclopropanecarboxylic acid], for which the pIC50 is greater than 6.52.

On to `Cc1noc(-c2ccc(-c3ccc(C4(C(=O)O)CC4)cc3)cc2)c1CCC(=O)N1Cc2ccccc2C1` [Compound 1-107, 1-(4′-{4-[3-(1,3-Dihydro-isoindol-2-yl)-3-oxo-propyl]-3-methyl-isoxazol-5-yl}-biphenyl-4-yl)-cyclopropanecarboxylic acid], for which the pIC50 is less than 4.30.

On to `Cc1noc(-c2ccc(-c3ccc(C4(CC(=O)O)CC4)cc3)cc2)c1C(O)CCCCc1ccc(Cl)c(Cl)c1` (stereo not drawn) [Compound 1-208, [1-(4′-{4-[5-(3,4-Dichloro-phenyl)-1-hydroxy-pentyl]-3-methyl-isoxazol-5-yl}-biphenyl-4-yl)-cyclopropyl]-acetic acid], for which the pIC50 was greater than 6.52.

On to `Cc1noc(-c2ccc(-c3ccc(C4(C(=O)O)CC4)cc3)cc2)c1C(CCCc1ccccc1)NS(C)(=O)=O` (stereo not drawn) [Compound 1-257, 1-{4′-[4-(1-Methanesulfonylamino-4-phenyl-butyl)-3-methyl-isoxazol-5-yl]-biphenyl-4-yl}-cyclopropanecarboxylic acid], for which the pIC50 was 4.30 to 6.00.

With `Cc1noc(-c2ccc(-c3ccc(CCC(=O)O)cc3)cc2)c1NC(C)CCc1cccc(C(F)(F)F)c1` (single isomer, unassigned) [Compound 1-235, 3-(4′-{3-Methyl-4-[1-methyl-3-(3-trifluoromethyl-phenyl)-propylamino]-isoxazol-5-yl}-biphenyl-4-yl)-propionic acid], the pIC50 was greater than 6.52.

`Cc1noc(-c2ccc(-c3ccc(C4(C(=O)NS(=O)(=O)C5CC5)CC4)cc3)cc2)c1NC(=O)NS(=O)(=O)C1CC1` [Compound 2-6, Cyclopropanesulfonic acid (1-{4′-[4-(3-cyclopropylsulfonyl-ureido)-3-methyl-isoxazol-5-yl]-biphenyl-4-yl}-cyclopropanecarbonyl)-amide]: the pIC50 is 4.30 to 6.00.

As for `Cc1noc(-c2ccc(-c3ccc(C4(C(=O)O)CC4)cc3)cc2)c1NC(=O)N(C)[C@H](C)c1ccccc1` [Compound 1-9, 1-(4′-{3-Methyl-4-[3-methyl-3-((R)-1-phenyl-ethyl)-ureido]-isoxazol-5-yl}-biphenyl-4-yl)-cyclopropanecarboxylic acid], the pIC50 was 4.30 to 6.00.
